Here are results for one molecule from patent publication US11596650B2, “Composition and method for the treatment of type 2 diabetes” (Vector Vitale IP LLC, priority 2019, dated 2023).

This data set in a line: Accumulation of metals in liver and kidney tissues, intraperitoneal administration to intact rats. The format is in vivo, rat.

Description: Animals are placed in cages, 4 per cage, with free access to food/water. […] After the last injection, a half of the animals are maintained on hunger (for 12 hours) with free access to water. Upon expiration of this time period, the animals are taken out of the experiment. The second half of the animals continues to have free access to food/water for a further 7 days. On day 6 after the last injection, the animals are maintained on hunger (for 12 hours) with free access to water. Upon expiration of this time period, the animals are taken out of the experiment.
The total kidney, liver and muscle homogenates were prepared as follows. Organ excision and homogenization were carried out at a temperature of 1-4° C. […] The volume of the used buffer in ml was 5 times larger than the mass of isolated organs in grams. The isolated liver was perfused with chilled saline (0.9% NaCl) via the portal vein using a syringe. The minced liver was transferred to a homogenizer with a finely ground Teflon pestle and homogenized in chilled buffer. An isolated pair of kidneys was perfused with chilled saline, released from adipose tissue and minced with scissors. The minced tissue was transferred to a homogenizer with a finely ground Teflon pestle and homogenized in chilled buffer. The total kidney and liver homogenates were centrifuged at 600 g for 15 minutes. […]

For `CC(=O)[O-].CC(=O)[O-].[Zn+2]` [Zn acetate, Zinc acetate], the “Zinc in the kidney and liver tissues” value (day 1 and day 7 after discontinuation of the substances) is “significantly increased”. For the same molecule, where the note is “intact rats, intraperitoneal”, the “All other analyzed metals (manganese and copper) in kidney and liver tissues” value is given as “within the same concentrations as in the control group”.
